Assay results from publication PMC4980415 (Psychopharmacology, 2016).

What was measured:
in vivo = conditions: male, Sprague-Dawley, rat, oral
Method: Standard methods of tissue extraction were used. […] Brain homogenate or plasma was then extracted with two volumes of acetonitrile and clarified by centrifugation at 12,000g for 20 min. […] Brain and plasma concentration and ratio (brain/plasma) were calculated for each compound.

[1] = tested on: conditioned avoidance responding in male Wistar rats; test: Conditioned avoidance response (CAR); type: in vivo, rat
Method: The drug was administered, per os (po), by gavage to rats in a volume of 2 ml/kg body weight. Oral dosing solutions were prepared fresh daily. […] The pH of the dosing solution was adjusted to ~pH 5.5 by dropwise addition of 0.1 N NaOH in saline and volume adjusted by addition of saline in preparation for intraperitoneal (ip) dosing. […] Control treatments were always the vehicle solutions of the corresponding drugs.
Avoidance behavior, escape behavior, escape failures, and inter-trial crosses were recorded, as described here: (1) avoidance (response to CS within 10 s); (2) escape (response to CS + UCS); and (3) escape failure (if the rat was unable to respond to the shock by moving into the opposite compartment within 50 s, the trial was terminated). The inter-trial interval (end of trial to start of new trial) varied randomly between 20 and 40 s. Rats were trained for five consecutive days and adapted to the shuttle box 5 min before each training session. Training sessions consisted of about 20 trials, randomly distributed over 15 min. Only rats that performed at least 90 % avoidance on the last day of training were included in the experiments. All subsequent test sessions were preceded by a pre-test to verify continued performance in the paradigm. Pre-tests and test sessions consisted of approximately ten trials, each randomly distributed over a 7.5-min period. […] Experimental days were always separated by at least two non-experimental days. Experimental tests were separated by at least 2 days to insure drug washout.
Results from the conditioned avoidance responding (CAR) protocol were analyzed using non-parametric procedures.

Compound	concentration at 1 h (in vivo; brain)	concentration at 1 h (in vivo; plasma)	concentration at 1 h (in vivo; plasma, plasma concentration, risperidone 2 mg/kg po plus vehicle, 1 h, ± SD, n = 3)	effect on percent avoidances ([1]; 0.2 mg/kg i.p., sub-threshold dose)	effect on avoidance behaviors ([1]; 0.8 mg/kg i.p., effective dose)
Cc1nc2n(c(=O)c1CCN1CCC(c3noc4cc(F)ccc34)CC1)CCCC2O (centres unmarked) [Paliperidone, paliperidone]	15 ± 5 ng/mL	197 ± 91 ng/mL	162 ± 70 ng/mL		
Cc1nc2n(c(=O)c1CCN1CCC(c3noc4cc(F)ccc34)CC1)CCCC2 [Risperidone, reference compound]				no effect	significant inhibition
